Source: patent US20230399411A1, “SPECIFIC ANTIBODY-DRUG-CONJUGATES (ADCS) WITH KSP INHIBITORS AND ANTI-CD123-ANTIBODIES” (Bayer Pharma Aktiengesellschaft, priority 2016, published 2023)

Assays:
NCI-H292 cells = assay: MTT assay, cytotoxicity of metabolites; type: cell-based; conditions: Homo sapiens, 96 h incubation
Procedure: The analysis of the cytotoxic effects of the anti-CD123 ADCs and the corresponding metabolites was carried out with various cell lines:
NCI-H292: human mucoepidermoid lung carcinoma cells, ATCC-CRL-1848, standard medium: RPMI 1640 (Biochrom; #FG1215, stab. glutamine)+10% FCS (Biochrom; #S0415).
The cells were cultivated according to the standard method using the growth media listed under C-1. The test is carried out by detaching the cells with a solution of Accutase in PBS (Biochrom AG #L2143; in case of adherent cell), pelleting, resuspending in culture medium, counting and sowing into a 96-well culture plate with white bottom (Costar #3610) (NCI H292: 2500 cells/well; MOLM-13: 2000 cells/well; THP-1: 8000 cells/well; NB4: 7000 cells/well; KG-1: 5000 cells/well, MV-4-11: 5000 cells/well in a total volume of 100 μl). The cells were then incubated in an incubator at 37° C. and 5% carbon dioxide. After 6 h or 48 h (adherent cells) the medium was replaced. […] After 96 h, the cell proliferation was detected using the MTT assay (ATCC, Manassas, Virginia, USA, catalogue No. 30-1010K). […] The dye formed was detected at 570 nm (Infinite M1000 pro, Tecan). The measured data were used to calculate the IC50 of the growth inhibition using the DRC (dose response curve). […]

[1] = Caco-2 flux assay for cell permeability; type: in vitro ADME; conditions: human; for Papp B→A at 2 h: Caco-2, 2 hours
Procedure: The cell permeability of a substance can be investigated by means of in vitro testing in a flux assay using Caco-2 cells [M. D. Troutman and D. R. Thakker, Pharm. Res. 20 (8), 1210-1224 (2003)]. For this purpose, the cells were cultured for 15-16 days on 24-well filter plates. For the determination of permeation, the respective test substance was applied in a HEPES buffer to the cells either apically (A) or basally (B) and incubated for 2 hours. After 0 hours and after 2 hours, samples were taken from the cis and trans compartments. The samples were separated by HPLC (Agilent 1200, Böblingen, Germany) using reverse phase columns. The HPLC system was coupled via a Turbo Ion Spray Interface to a Triple Quadropol mass spectrometer API 4000 (AB SCIEX Deutschland GmbH, Darmstadt, Germany). The permeability was evaluated on the basis of a Papp value, which was calculated using the formula published by Schwab et al. [D. Schwab et al., J. Med. Chem. 46, 1716-1725 (2003)]. […] Of critical importance for toxophores which are released intracellularly is the permeability from B to A [Papp (B-A)] and the ratio of Papp (B-A) to Papp (A-B) (efflux ratio): the lower this permeability, the slower the active and passive transport processes of the substance through the monolayer of Caco-2 cells.

SMILES	IC50 (NCI-H292 cells) [nM]	Papp B→A at 2 h [1] [×10⁻⁶ cm/s]	efflux ratio at 2 h ([1]; Caco-2, Papp (B-A) to Papp (A-B))
CC(C)(C)[C@H](c1cc(-c2cc(F)ccc2F)cn1Cc1ccccc1)N(CCCN)C(=O)CSC[C@H](NC(=O)CCOCCOCCOCCOCCNC(=O)CNC(=O)CC(SC[C@H](N)C(=O)O)C(=O)O)C(=O)O.O=C(O)C(F)(F)F.O=C(O)C(F)(F)F (stereo partly drawn) [Example M20, (1R,4R,27R,33R)-1-Amino-32-(3-aminopropyl)-33-[1-benzyl-4-(2,5-difluorophenyl)-1H-pyrrol-2-yl]-34,34-dimethyl-6,9,25,31-tetraoxo-13,16,19,22-tetraoxa-3,29-dithia-7,10,26,32-tetraazapentatriacontane-1,4,27-tricarboxylic acid/trifluoroacetic acid (1:2)]	149	0.089	–
CC(C)(C)[C@H](c1cc(-c2cc(F)ccc2F)cn1Cc1ccccc1)N(CCCN)C(=O)CSC[C@H](NC(=O)CCOCCOCCOCCOCCNC(=O)CNC(=O)C(CC(=O)O)SC[C@H](N)C(=O)O)C(=O)O.O=C(O)C(F)(F)F.O=C(O)C(F)(F)F (stereo partly drawn) [Example M21, (2R,24S,27R)-27-Amino-2-[({2-[(3-aminopropyl){(1R)-1-[1-benzyl-4-(2,5-difluorophenyl)-1H-pyrrol-2-yl]-2,2-dimethylpropyl}amino]-2-oxoethyl}sulphanyl)methyl]-24-(carboxymethyl)-4,20,23-trioxo-7,10,13,16-tetraoxa-25-thia-3,19,22-triazaoctacosane-1,28-dioic acid/trifluoroacetic acid (1:2)]	–	0.05	1.5
